This passage reports IC50 results from patent US20180148418A1, “AMIDO-SUBSTITUTED CYCLOHEXANE DERIVATIVES” (Bayer Pharma Aktiengesellschaft, priority 2015, published 2018).

For test [1], the system named is wildtype Wnt signaling cascade. The test can be described thus: HEK293 TOP assay (Super TopFlash luciferase reporter, Wnt-3a stimulated). As to conditions: Homo sapiens, HEK293, 16 h, HEK293 TOP reporter cells, Wnt3a at EC50, 16 hours. Format: cell-based. The procedure, abridged:
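Compound series (50 μM down to 15 nM, 3.16-fold) diluted from DMSO 50-fold into CAFTY buffer, pH 7.4, 2 mM Ca^2+, 0.01% BSA, applied to Wnt-3a-stimulated HEK293 TopFlash and FOP reporter lines in parallel. Cells seeded 10000/well 24 h before; luciferase signal measured.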
(In a reporter assay the amount or activity of a reporter protein is the signal.)

The test system of test [2] is HEK293 cells cotransfected with the FOP control vector. Nature of the test: HEK293 FOP assay (control reporter with non-functional TCF elements). Format: cell-based. The following applies: Homo sapiens, 16 hours. The procedure, abridged:
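Compound series from 50 μM down to 15 nM, prediluted in DMSO then 50-fold into CAFTY buffer (pH 7.4, 2 mM Ca2+, 0.01% BSA), tested alongside TOP cells on a Geneticin-selected HEK293 FOP line whose TCF elements are replaced by a random sequence; recombinant human Wnt-3a applied at 2500-5 ng/ml.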

In another test the target is T1, TNKS2 (Homo sapiens, UniProt Q9H2K2).
T1 construct: purchased BPS Bioscience, San Diego, USA 80572 (TNKS2 Histone Ribosylation Assay Kit)
T1 sequence (Q9H2K2 1-1166): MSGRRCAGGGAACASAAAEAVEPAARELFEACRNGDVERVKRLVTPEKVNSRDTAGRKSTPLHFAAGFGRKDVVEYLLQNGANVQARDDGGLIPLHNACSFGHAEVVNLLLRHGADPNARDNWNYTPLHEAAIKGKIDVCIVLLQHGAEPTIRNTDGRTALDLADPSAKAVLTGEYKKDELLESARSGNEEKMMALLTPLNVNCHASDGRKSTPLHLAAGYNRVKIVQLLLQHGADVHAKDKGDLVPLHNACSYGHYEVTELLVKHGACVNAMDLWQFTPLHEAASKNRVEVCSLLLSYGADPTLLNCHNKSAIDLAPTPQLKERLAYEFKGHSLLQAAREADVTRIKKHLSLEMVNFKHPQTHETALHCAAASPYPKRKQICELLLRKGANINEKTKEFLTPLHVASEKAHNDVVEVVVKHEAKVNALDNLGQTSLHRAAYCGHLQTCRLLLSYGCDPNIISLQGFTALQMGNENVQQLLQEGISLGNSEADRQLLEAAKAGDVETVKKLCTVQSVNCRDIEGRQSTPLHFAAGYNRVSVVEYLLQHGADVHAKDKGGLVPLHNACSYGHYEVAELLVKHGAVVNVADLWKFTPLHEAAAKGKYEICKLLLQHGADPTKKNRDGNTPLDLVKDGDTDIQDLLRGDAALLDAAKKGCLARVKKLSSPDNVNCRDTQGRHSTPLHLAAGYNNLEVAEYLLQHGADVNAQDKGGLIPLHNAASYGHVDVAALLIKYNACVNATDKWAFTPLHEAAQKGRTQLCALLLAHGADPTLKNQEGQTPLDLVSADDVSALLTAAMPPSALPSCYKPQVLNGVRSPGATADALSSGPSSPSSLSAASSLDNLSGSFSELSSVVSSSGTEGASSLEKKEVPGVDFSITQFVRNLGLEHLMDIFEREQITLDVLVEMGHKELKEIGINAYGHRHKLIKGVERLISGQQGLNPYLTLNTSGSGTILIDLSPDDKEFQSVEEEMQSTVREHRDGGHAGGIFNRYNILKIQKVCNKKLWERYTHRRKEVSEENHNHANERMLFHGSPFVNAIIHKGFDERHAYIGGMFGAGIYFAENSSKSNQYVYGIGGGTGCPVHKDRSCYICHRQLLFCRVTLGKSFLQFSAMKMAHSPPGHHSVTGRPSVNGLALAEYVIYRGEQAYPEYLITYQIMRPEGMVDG
Nature of the test: TNKS2 Assay B (auto-parsylation, [3H]-NAD+ SPA). As to conditions: 6 nM TNKS2, auto-parsylation, over night at room temperature. The test is classed as biochemical.

Where a name gives a salt, the structure may show the parent alone.

In general, IC50 refers to the point on the concentration scale where inhibition reaches its midpoint. Higher therefore signals weaker potency in that assay.

Turning to `Cc1ccnc2c(C(=O)N[C@H]3CC[C@@]4(CCN(c5ccc(F)cc5Cl)C4=O)CC3)cnn12` [Example 222, N-[(trans)-2-(2-chloro-4-fluorophenyl)-1-oxo-2-azaspiro[4.5]dec-8-yl]-7-methylpyrazolo[1,5-a]pyrimidine-3-carboxamide], the IC50 is 2.1 nM in test [1], no less than 50000 nM in test [2] and 6.5 nM against TNKS2.
Consider `Cc1cc(C(F)F)n2ncc(C(=O)N[C@H]3CC[C@@]4(CCN(c5ccc(F)cc5Cl)C4=O)CC3)c2n1` [Example 224, N-[(trans)-2-(2-chloro-4-fluorophenyl)-1-oxo-2-azaspiro[4.5]dec-8-yl]-7-(difluoromethyl)-5-methylpyrazolo[1,5-a]pyrimidine-3-carboxamide], for which the IC50 in test [1] was 0.83 nM; in test [2] it was no less than 50000 nM; against TNKS2 it was 11 nM.
In the case of `CC(C)(C)OC(=O)N1CCN(c2ccn3ncc(C(=O)N[C@H]4CC[C@@]5(CCN(c6ccc(F)cc6Cl)C5=O)CC4)c3n2)CC1` [Example 225, tert-butyl 4-(3-{[(trans)-2-(2-chloro-4-fluorophenyl)-1-oxo-2-azaspiro[4.5]dec-8-yl]carbamoyl}pyrazolo[1,5-a]pyrimidin-5-yl)piperazine-1-carboxylate], the IC50 in test [1] was 59 nM; in test [2], no less than 50000 nM; against TNKS2, 2.5 nM.
In the same order, the values of `O=C(N[C@H]1CC[C@@]2(CCN(c3ccc(F)cc3Cl)C2=O)CC1)c1cnn2ccc(N3CCNCC3)nc12` [Example 226, N-[(trans)-2-(2-chloro-4-fluorophenyl)-1-oxo-2-azaspiro[4.5]dec-8-yl]-5-(piperazin-1-yl)pyrazolo[1,5-a]pyrimidine-3-carboxamide hydrochloric acid salt] are 32 nM, no less than 500 nM and 3.3 nM.
The corresponding values for `O=C(N[C@H]1CC[C@@]2(CCN(c3ccc(F)cc3Cl)C2=O)CC1)c1cnn2ccc(N3CCCC3)nc12` [Example 232, N-[(trans)-2-(2-chloro-4-fluorophenyl)-1-oxo-2-azaspiro[4.5]dec-8-yl]-5-(pyrrolidin-1-yl)pyrazolo[1,5-a]pyrimidine-3-carboxamide] are 6.4 nM, no less than 50000 nM and 3.3 nM.
`O=C(N[C@H]1CC[C@@]2(CCN(c3ccc(F)cc3Cl)C2=O)CC1)c1cnn2c(C(F)(F)F)ccnc12` [Example 233, N-[(trans)-2-(2-chloro-4-fluorophenyl)-1-oxo-2-azaspiro[4.5]dec-8-yl]-7-(trifluoromethyl)pyrazolo[1,5-a]pyrimidine-3-carboxamide]: the IC50 in test [1] was 9 nM; in test [2] it was no less than 50000 nM; against TNKS2, 25 nM.
As for `O=C(N[C@H]1CC[C@@]2(CCN(c3ccccc3Cl)C2=O)CC1)c1cnn2cccnc12` [Example 256, N-[(trans)-2-(2-chlorophenyl)-1-oxo-2-azaspiro[4.5]dec-8-yl]pyrazolo[1,5-a]pyrimidine-3-carboxamide], the results for the IC50 (in test [1]; in test [2]; on TNKS2) were 2.3 nM, no less than 50000 nM and 12 nM, respectively.
In the same order, the values of `Cc1cc(C)n2ncc(C(=O)N[C@H]3CC[C@@]4(CCN(c5ccccc5Cl)C4=O)CC3)c2n1` [Example 257, N-[(trans)-2-(2-chlorophenyl)-1-oxo-2-azaspiro[4.5]dec-8-yl]-5,7-dimethylpyrazolo[1,5-a]pyrimidine-3-carboxamide] are 1.4 nM, no less than 50000 nM and 5.7 nM.
In the same order, the values of `CCNC(=O)c1nc[nH]c1C(=O)N[C@H]1CC[C@@]2(CCN(c3ccccc3Cl)C2=O)CC1` [Example 258, N^5-[(trans)-2-(2-chlorophenyl)-1-oxo-2-azaspiro[4.5]dec-8-yl]-N^4-ethyl-1H-imidazole-4,5-dicarboxamide] are 2.3 nM, no less than 50000 nM and 6.3 nM.
The corresponding values for `COCCNC(=O)c1nc[nH]c1C(=O)N[C@H]1CC[C@@]2(CCN(c3ccccc3Cl)C2=O)CC1` [Example 259, N^5-[(trans)-2-(2-chlorophenyl)-1-oxo-2-azaspiro[4.5]dec-8-yl]-N^4-(2-methoxyethyl)-1H-imidazole-4,5-dicarboxamide] are 8.6 nM, no less than 50000 nM and 6.3 nM.
Turning to `CC1CCN(CCNC(=O)c2nc[nH]c2C(=O)N[C@H]2CC[C@@]3(CCN(c4ccccc4Cl)C3=O)CC2)CC1` [Example 260, N^5-[(trans)-2-(2-chlorophenyl)-1-oxo-2-azaspiro[4.5]dec-8-yl]-N^4-[2-(4-methylpiperidin-1-yl)ethyl]-1H-imidazole-4,5-dicarboxamide], the half-maximal inhibitory concentration (IC50) in test [1] was 2.8 nM; in test [2] it was no less than 50000 nM; at TNKS2, 1.7 nM.
In the same order, the values of `CNC(=O)c1nc[nH]c1C(=O)N[C@H]1CC[C@@]2(CCN(c3ccccc3Cl)C2=O)CC1` [Example 264, N^5-[(trans)-2-(2-chlorophenyl)-1-oxo-2-azaspiro[4.5]dec-8-yl]-N^4-methyl-1H-imidazole-4,5-dicarboxamide] are 2.3 nM, 33000 nM and 4 nM.
`Cc1cc(N2CC[C@]3(CC[C@@H](NC(=O)c4cnc5cccnn45)CC3)C2=O)c(Cl)cc1F` [Example 265, N-[(trans)-2-(2-chloro-4-fluoro-5-methylphenyl)-1-oxo-2-azaspiro[4.5]dec-8-yl]imidazo[1,2-b]pyridazine-3-carboxamide]: the IC50 was 3.5 nM in test [1], no less than 50000 nM in test [2] and 4.8 nM against TNKS2.
Regarding `Cc1cc(C)n2ncc(C(=O)N[C@H]3CC[C@@]4(CCN(c5cc(C)c(F)cc5Cl)C4=O)CC3)c2n1` [Example 266, N-[(trans)-2-(2-chloro-4-fluoro-5-methylphenyl)-1-oxo-2-azaspiro[4.5]dec-8-yl]-5,7-dimethylpyrazolo[1,5-a]pyrimidine-3-carboxamide], the results for the IC50 (in test [1]; in test [2]; at TNKS2) were 6.6 nM, no less than 50000 nM and 6.8 nM, respectively.
As to `Cc1cc(N2CC[C@]3(CC[C@@H](NC(=O)c4cnn5cccnc45)CC3)C2=O)c(Cl)cc1F` [Example 267, N-[(trans)-2-(2-chloro-4-fluoro-5-methylphenyl)-1-oxo-2-azaspiro[4.5]dec-8-yl]pyrazolo[1,5-a]pyrimidine-3-carboxamide], the figures for the IC50 (in test [1]; in test [2]; against TNKS2) were 3.2 nM, no less than 50000 nM and 5.2 nM, respectively.
Take `O=C(N[C@H]1CC[C@@]2(CCN(c3cccc(Cl)c3)C2=O)CC1)c1cnn2cccnc12` [Example 268, N-[(trans)-2-(3-chlorophenyl)-1-oxo-2-azaspiro[4.5]dec-8-yl]pyrazolo[1,5-a]pyrimidine-3-carboxamide]: the values for the IC50 (in test [1]; in test [2]; at TNKS2) were 76 nM, no less than 50000 nM and 230 nM, respectively.
The corresponding values for `O=C(N[C@H]1CC[C@@]2(CCN(c3cccc(Cl)c3)C2=O)CC1)c1cnc2cccnn12` [Example 269, N-[(trans)-2-(3-chlorophenyl)-1-oxo-2-azaspiro[4.5]dec-8-yl]imidazo[1,2-b]pyridazine-3-carboxamide] are 65 nM, no less than 50000 nM and 290 nM.
The corresponding values for `Cc1cc(C)n2ncc(C(=O)N[C@H]3CC[C@@]4(CCN(c5cccc(Cl)c5)C4=O)CC3)c2n1` [Example 270, N-[(trans)-2-(3-chlorophenyl)-1-oxo-2-azaspiro[4.5]dec-8-yl]-5,7-dimethylpyrazolo[1,5-a]pyrimidine-3-carboxamide] are 8.9 nM, no less than 50000 nM and 280 nM.
